Measured values from ChEMBL document CHEMBL4765493, “Berberine Directly Targets the NEK7 Protein to Block the NEK7-NLRP3 Interaction and Exert Anti-inflammatory Activity” (J Med Chem, 2021).
Active and inactive are the calls of the source. No cut-off for these calls is given here.

How the values were obtained:
[1] = Inhibition of LPS + nigericin-induced IL-1beta secretion in PMA-differentiated human THP-1 cells at 20 uM incubated for 24 hrs by ELISA; assay type: functional
Mus musculus [2] = assay: Inhibition of serum IL-1beta production in NEK7 knockdown C57BL/6 mouse model at 5 mg/kg, ip dosed three times every 12 hrs followed by LPS challenge by ELISA; assay type: functional, organism-based
[3] = Toxicity in mouse BMDM cells assessed as induction of apoptosis by measuring cleaved caspase-9 levels up to 40 uM incubated for 24 hrs by immunoblot analysis; assay type: cell-based
THP-1 [4] = assay: Inhibition of LPS + nigericin-induced NLRP3 expression in human THP-1 cells at 2.5 to 20 uM pre-treatment for 4 hrs before LPS + nigericin by immunoblot analysis; assay type: functional, cell-based; conditions: dose 2.5-20 µM
Mus musculus [5] = assay: Antiinflammatory activity in NEK7 wild type C57BL/6 mouse model assessed as reduction in lesion in heart in at 5 mg/kg, ip dosed three times every 12 hrs followed by LPS challenge by H and E staining; assay type: functional, organism-based
[6] = biological target: T1, Serine/threonine-protein kinase Nek7 (Homo sapiens, UniProt Q8TDX7); assay: Binding affinity to purified recombinant human NEK7 by SPR analysis
Target sequence in this assay (Q8TDX7 whole entry): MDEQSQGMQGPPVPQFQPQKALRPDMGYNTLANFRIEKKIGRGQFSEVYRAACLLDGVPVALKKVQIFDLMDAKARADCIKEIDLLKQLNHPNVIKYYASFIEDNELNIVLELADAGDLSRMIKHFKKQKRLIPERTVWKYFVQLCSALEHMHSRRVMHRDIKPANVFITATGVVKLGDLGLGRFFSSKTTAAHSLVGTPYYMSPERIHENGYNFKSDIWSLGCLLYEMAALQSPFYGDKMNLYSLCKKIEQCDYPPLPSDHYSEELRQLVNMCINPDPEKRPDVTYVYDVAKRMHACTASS

Mus musculus [7] = assay: Antiinflammatory activity in NEK7 wild type C57BL/6 mouse model assessed as reduction in lesion in kidney in at 5 mg/kg, ip dosed three times every 12 hrs followed by LPS challenge by H and E staining; assay type: functional, organism-based
[8] = Toxicity in mouse BMDM cells assessed as induction of apoptosis by measuring cleaved caspase-3 levels up to 40 uM incubated for 24 hrs by immunoblot analysis; assay type: cell-based
[9] = biological target: T1, Serine/threonine-protein kinase Nek7; assay: Binding affinity to NEK7 in PMA-differentiated human THP-1 cells assessed as reduction in Cy3-labeled target proteins at 100 uM incubated for 8 hrs using probe-16 by fluorescent gel imaging analysis; assay type: cell-based
Target sequence in this assay (Q8TDX7 whole entry, looked up): as the sequence (Q8TDX7 whole entry) above

BMDM [10] = assay: Inhibition of LPS + nigericin-induced IL-1beta secretion in mouse BMDM at 2.5 to 20 uM pre-treatment for 4 hrs before LPS + nigericin by immunoblot analysis; assay type: functional, tissue-based; conditions: dose 2.5-20 µM
HEK293 [11] = assay: Inhibition of NEK7-NLRP3 interaction (unknown origin) expressed in HEK293 cells incubated for 24 hrs by Co-IP assay; assay type: cell-based; conditions: Homo sapiens
THP-1 [12] = assay: Inhibition of LPS + nigericin-induced pro-IL-beta expression in human THP-1 cells at 2.5 to 20 uM pre-treatment for 4 hrs before LPS + nigericin by immunoblot analysis; assay type: functional, cell-based; conditions: dose 2.5-20 µM
HEK293 [13] = assay: Inhibition of NEK7 R121A mutant-NLRP3 interaction (unknown origin) expressed in HEK293 cells at 10 uM incubated for 24 hrs by Co-IP assay; assay type: cell-based; conditions: Homo sapiens
BMDM [14] = assay: Inhibition of LPS + nigericin-induced pro-IL-1beta expression in mouse BMDM at 2.5 to 20 uM pre-treatment for 4 hrs before LPS + nigericin by immunoblot analysis; assay type: functional, tissue-based; conditions: dose 2.5-20 µM
THP-1 [15] = assay: Inhibition of LPS + nigericin-induced IL-1beta secretion in human THP-1 cells pre-treatment for 4 hrs before LPS + nigericin by immunoblot analysis; assay type: functional, cell-based
HEK293 [16] = assay: Inhibition of NEK7-NLRP3 interaction (unknown origin) expressed in HEK293 cells at 10 uM incubated for 24 hrs by Co-IP assay; assay type: cell-based; conditions: Homo sapiens
Mus musculus [17] = assay: Antiinflammatory activity in NEK7 wild type C57BL/6 mouse model assessed as reduction in lesion in lung in at 5 mg/kg, ip dosed three times every 12 hrs followed by LPS challenge by H and E staining; assay type: functional, organism-based
Mus musculus [18] = assay: Antiinflammatory activity in NEK7 wild type C57BL/6 mouse model assessed as reduction in inflammatory infiltration in liver at 5 mg/kg, ip dosed three times every 12 hrs followed by LPS challenge by H and E staining; assay type: functional, organism-based
[19] = Toxicity in mouse BMDM cells assessed as induction of cell death up to 40 uM incubated for 24 hrs by MTS assay; assay type: cell-based
[20] = Inhibition of LPS + nigericin-induced IL-1beta secretion in PMA-differentiated human THP-1 cells incubated for 1 to 24 hrs by Immunoblot analysis; assay type: functional, cell-based
THP-1 [21] = assay: Inhibition of LPS + nigericin-induced ASC-pyroptosome formation in human THP-1 cells at 5 to 10 uM uM pre-treatment for 4 hrs before LPS + nigericin addition by immunofluorescence analysis; assay type: functional, cell-based; conditions: dose 5-10 µM
BMDM [22] = assay: Inhibition of LPS + nigericin-induced NLRP3 expression in mouse BMDM at 2.5 to 20 uM pre-treatment for 4 hrs before LPS + nigericin by immunoblot analysis; assay type: functional, tissue-based; conditions: dose 2.5-20 µM
THP-1 [23] = assay: Inhibition of LPS + nigericin-induced caspase-1 activation in human THP-1 cells pre-treatment for 4 hrs before LPS + nigericin by immunoblot analysis; assay type: functional, cell-based
THP-1 [24] = assay: Inhibition of AIM2-induced IL-1beta activation in human THP-1 cells at 10 uM pre-treatment for 2 hrs before AIM2 addition; assay type: functional, cell-based
[25] = biological target: T1, Serine/threonine-protein kinase Nek7; assay: Inhibition of purified recombinant human NEK7 incubated for 15 mins before ATP and substrate addition and further incubated for 40 mins by ADPGlo kinase assay
Target sequence in this assay (Q8TDX7 whole entry): as above

[26] = biological target: T1, Serine/threonine-protein kinase Nek7; assay: Binding affinity to NEK7 in PMA-differentiated human THP-1 cells at 100 uM incubated for 8 hrs by streptavidin-bead enrichment and immunoblot assay; assay type: cell-based
Target sequence in this assay (Q8TDX7 whole entry, looked up): as the sequence (Q8TDX7 whole entry) above

Mus musculus [27] = assay: Inhibition of serum IL-1beta production in NEK7 wild type C57BL/6 mouse model at 5 mg/kg, ip dosed three times every 12 hrs followed by LPS challenge by ELISA; assay type: functional, organism-based
[28] = Toxicity in mouse BMDM cells assessed as induction of apoptosis by measuring cleaved caspase-7 levels up to 40 uM incubated for 24 hrs by immunoblot analysis; assay type: cell-based
BMDM [29] = assay: Inhibition of LPS + nigericin-induced caspase-1 activation in mouse BMDM at 2.5 to 20 uM pre-treatment for 4 hrs before LPS + nigericin by immunoblot analysis; assay type: functional, tissue-based; conditions: dose 2.5-20 µM
Mus musculus [30] = assay: Antiinflammatory activity in NEK7 wild type C57BL/6 mouse model assessed as reduction in lesion in spleen in at 5 mg/kg, ip dosed three times every 12 hrs followed by LPS challenge by H and E staining; assay type: functional, organism-based
THP-1 [31] = assay: Inhibition of NEK7-NLRP3 interaction in human THP-1 cells incubated for 24 hrs by Co-IP assay; assay type: cell-based

## COc1ccc2cc3[n+](cc2c1OCCOCCOCCNC(=O)CCCC[C@@H]1SC[C@@H]2NC(=O)N[C@@H]21)CCc1cc2c(cc1-3)OCO2
[1]
  inhibition at 20 µM: 16%

## C#CCOCCOc1cc(C2(C(F)(F)F)N=N2)ccc1C(=O)NCCOCCOCCOc1ccc2cc3[n+](cc2c1OC)CCc1cc2c(cc1-3)OCO2
[1]
  inhibition at 20 µM: 80%

## COc1cc2c(cc1OC)-c1cc3ccc(OC)c(OCCCCCNC(=O)CCCC[C@@H]4SC[C@@H]5NC(=O)N[C@@H]54)c3c[n+]1CC2
[1]
  inhibition at 20 µM: 77%

## COc1cc2c(cc1OCCCCCNC(=O)CCCC[C@@H]1SC[C@@H]3NC(=O)N[C@@H]31)CC[n+]1cc3c(OC)c(OC)ccc3cc1-2
[1]
  inhibition at 20 µM: 70%

## COc1cc2c(cc1OC)-c1cc3ccc(OC)c(OCCCNC(=O)CCCC[C@@H]4SC[C@@H]5NC(=O)N[C@@H]54)c3c[n+]1CC2
[1]
  inhibition at 20 µM: 80%

## COc1c(OCCCNC(=O)CCCC[C@@H]2SC[C@@H]3NC(=O)N[C@@H]32)ccc2cc3[n+](cc12)CCc1cc2c(cc1-3)OCO2
[1]
  inhibition at 20 µM: 38%

## COc1cc2c(cc1OCCOCCOCCNC(=O)CCCC[C@@H]1SC[C@@H]3NC(=O)N[C@@H]31)CC[n+]1cc3c(OC)c(OC)ccc3cc1-2
[1]
  inhibition at 20 µM: -79%

## COc1ccc2cc3[n+](cc2c1OCCCNC(=O)CCCC[C@@H]1SC[C@@H]2NC(=O)N[C@@H]21)CCc1cc2c(cc1-3)OCO2
[1]
  inhibition at 20 µM: -92%

## COc1ccc2cc3[n+](cc2c1OC)CCc1cc2c(cc1-3)OCO2.[Cl-] [BERBERINE CHLORIDE]
Mus musculus [2]
  Activity: inactive
[3]
  Activity: Non-Toxic
THP-1 [4]
  inhibition: inactive
Mus musculus [5]
  Activity: Active
[6]
  Kd: 15.6 µM
Mus musculus [7]
  Activity: Active
[8]
  Activity: Non-Toxic
[9]
  Activity: Active
BMDM [10]
  inhibition: Active
HEK293 [11]
  inhibition: Dose-dependent effect
THP-1 [12]
  inhibition: inactive
HEK293 [13]
  inhibition: inactive
BMDM [14]
  inhibition: inactive
THP-1 [15]
  inhibition: Active
HEK293 [16]
  inhibition: Active
Mus musculus [17]
  Activity: Active
Mus musculus [18]
  Activity: Active
[1]
  inhibition at 20 µM: 72%
[19]
  Activity: Non-Toxic
[20]
  IC50: 5.1 µM
THP-1 [21]
  inhibition: Active
BMDM [22]
  inhibition: inactive
THP-1 [23]
  inhibition: Active
THP-1 [24]
  inhibition: inactive
[25]
  IC50: 4.2 µM
[26]
  Activity: Active
Mus musculus [27]
  Activity: Active
[28]
  Activity: Non-Toxic
BMDM [29]
  inhibition: Active
Mus musculus [30]
  Activity: Active
THP-1 [31]
  inhibition: Dose-dependent effect

## COc1cc2c(cc1OCCOCCNC(=O)CCCC[C@@H]1SC[C@@H]3NC(=O)N[C@@H]31)CC[n+]1cc3c(OC)c(OC)ccc3cc1-2
[1]
  inhibition at 20 µM: 75%
